The record followed here is patent US10941136B2, “Quinazoline derivative or its salt and pharmaceutical composition comprising the same” (YUHAN CORPORATION, priority 2016, dated 2021).

Format in all cases: biochemical
For one test, the target named is T1, PI3Kδ (p110δ/p85α)(h) (Homo sapiens, UniProt O00329).
T1 construct: purchased Upstate (Millipore Co, Billerica, Mass., USA) #14˜604
The test can be described thus: PI3K-HTRF in vitro enzyme assay, PI3Kδ. The settings on record: enzyme 0.1 μg/ml. On the procedure:
(§1) The compounds of the present invention were tested for the activity of phosphatidylinositol 3-kinase delta (PI3K) by using a PI3K enzyme-homogeneous time resolved fluorescence (PI3K-HTRF) kit, which is available under Upstate™ kit (Millipore Co, Billerica, Mass., USA). This kit system measures indirectly the amount of PIP3 produced via PI3K by detecting competitive inhibition of fluorescence complex formation.
(§2) There were used three kinds of buffer solutions, i.e., reaction buffer, stop solution, and detection solution. The reaction buffer was prepared by diluting Reaction Buffer (provided in Update™ kit) with distilled water 4 times and adding DTT to a concentration of 5 mM. The stop solution was prepared by combining STOP A and B Solutions (provided in Update™ kit) in a ratio of 3:1. The detection solution was prepared by combining Detection Solution A, B and C (provided in Update™ kit) in a ratio of 1:1:18. A substrate solution and an ATP solution were prepared by diluting the 1 mM PIP2 (phosphatidyl inositol 4,5 bi-phosphate) stock solution (provided in Update™ kit) and 10 mM ATP (Sigma-aldrich Co., St. Louis, Mo., USA) stock solution with the reaction buffer to concentrations of 20 μM and 40 μM, respectively. An enzyme solution was prepared by diluting PI3Kδ (#14˜604; Upstate™ kit) with the substrate solution to the concentration of 0.2 μg/ml (final reaction concentration: 0.1 μg/ml).
(§3) The test groups were prepared by dissolving each compound in 100% DMSO at 40× the final concentration and then diluting 10-fold with the reaction buffer. 5 μl of each diluted test group solution was transferred to a 384 well low flange white flat bottom microplate (#3572, Corning Life Sciences, Lowell, Mass., USA). We performed centrifuge (1 minute, 1000 rpm) and shaking for 2 minutes after every solution-adding step in this experiment. Next, 10 μl of the enzyme solution was added to each well. A mixed solution of the substrate solution (10 μl) plus 5 μl of the 100% DMSO diluted solution without test compound (i.e., 10% DMSO solution) was used as a negative control. And also, a mixed solution of enzyme solution (10 μl) plus 5 μl of the 100% DMSO diluted solution without test compound (i.e., 10% DMSO solution) was used as a positive control. This plate was pre-incubated for 10 minutes in a 25° C. incubator. After the pre-incubation, the phosphorylation reaction was induced by adding 5 μl of the ATP solution and the plate was incubated for 30 minutes in a 25° C. incubator. This enzyme reaction was stopped by 5 μl of the stop solution and then 5 μl of the detection solution was added thereto. To obtain enough fluorescence responses, the plate was incubated for 2 hours in a 25° C. incubator protected from light.
(§4) The time-resolved fluorescence resonance energy transfer (TR-FRET) rate was measured (emission wavelength: 665 nm, 620 nm, excitation wavelength: 313 nm) by using a Flexstation3 Micro plate reader (Molecular Devices, USA). TR-FRET Rate was calculated based on the Equation 1 and using these TR-FRET Rates, % inhibition rate of each compound was calculated based on the Equation 2. The IC50 values, i.e., the concentration of a test compound that inhibits 50% of PI3Kδ activity in vitro, are generated by Softmax program (Molecular Devices, USA). TR-FRET Rate=(Signal at 665 nm emission wavelength/Signal at 620 nm emission wavelength)×10000 <Equation 1> % Inhibition Rate=[(TR-FRET Rate of the test group−TR-FRET Rate of the positive control group)/(TR-FRET Rate of the negative control group−TR-FRET Rate of the positive control group)]×100 <Equation 2>
In general terms: TR-FRET usually uses a lanthanide donor and a delayed reading to cut background.

The next test addresses T2, PI3Kα (p110α/p85α)(h) (Homo sapiens, UniProt P42336).
T2 construct: purchased Upstate (Millipore Co) #14-602
The test can be described thus: PI3K-HTRF in vitro enzyme assay, PI3Kα. The settings on record: enzyme 0.1 μg/ml. On the procedure: as §1, §2, §3, §4
(§5) The compounds of the present invention were assayed for the activities of PI3K subtypes, i.e., PI3Kα, PI3Kβ and PI3Kγ, using the same procedures as in Experimental Example 1. […]

The target of the next test is T3, PI3Kγ (p120γ)(h) (Homo sapiens, UniProt P48736).
T3 construct: purchased Upstate (Millipore Co) #14-558
T3 sequence (P48736 whole entry): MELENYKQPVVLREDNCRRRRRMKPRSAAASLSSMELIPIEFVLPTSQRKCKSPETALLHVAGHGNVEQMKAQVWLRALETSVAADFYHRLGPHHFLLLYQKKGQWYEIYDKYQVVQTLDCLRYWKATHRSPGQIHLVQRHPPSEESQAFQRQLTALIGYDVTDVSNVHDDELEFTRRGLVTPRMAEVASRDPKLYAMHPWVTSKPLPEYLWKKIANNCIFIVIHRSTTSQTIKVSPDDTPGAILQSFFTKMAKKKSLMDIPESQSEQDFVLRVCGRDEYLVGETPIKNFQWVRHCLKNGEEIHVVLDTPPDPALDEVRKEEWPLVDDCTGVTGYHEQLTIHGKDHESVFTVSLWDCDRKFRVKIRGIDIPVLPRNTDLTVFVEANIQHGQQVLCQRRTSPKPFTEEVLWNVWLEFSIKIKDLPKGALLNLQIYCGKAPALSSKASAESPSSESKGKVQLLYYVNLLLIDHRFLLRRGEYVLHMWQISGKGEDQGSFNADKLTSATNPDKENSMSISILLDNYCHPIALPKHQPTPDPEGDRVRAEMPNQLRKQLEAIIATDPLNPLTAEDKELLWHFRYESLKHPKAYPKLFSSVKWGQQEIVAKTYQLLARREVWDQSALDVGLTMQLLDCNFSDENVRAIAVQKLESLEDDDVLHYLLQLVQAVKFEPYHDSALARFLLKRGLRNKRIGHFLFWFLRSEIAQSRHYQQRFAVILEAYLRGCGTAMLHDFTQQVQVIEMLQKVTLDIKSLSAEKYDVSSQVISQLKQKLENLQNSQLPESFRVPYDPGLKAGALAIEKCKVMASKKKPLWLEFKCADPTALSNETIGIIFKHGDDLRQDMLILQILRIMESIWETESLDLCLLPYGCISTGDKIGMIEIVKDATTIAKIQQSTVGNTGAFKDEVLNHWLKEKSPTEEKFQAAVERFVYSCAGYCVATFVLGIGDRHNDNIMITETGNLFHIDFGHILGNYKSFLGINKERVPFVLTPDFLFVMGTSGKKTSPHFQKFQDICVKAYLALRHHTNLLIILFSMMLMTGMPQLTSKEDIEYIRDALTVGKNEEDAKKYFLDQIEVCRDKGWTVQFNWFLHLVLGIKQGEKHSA
The test can be described thus: PI3K-HTRF in vitro enzyme assay, PI3Kγ. The settings on record: enzyme 0.4 μg/ml. On the procedure: as §1, §2, §3, §4, §5

pIC50: −log10 of the molar value. Where only a bound is given, the exact number is not on record here.

T1 sequence (O00329 whole entry): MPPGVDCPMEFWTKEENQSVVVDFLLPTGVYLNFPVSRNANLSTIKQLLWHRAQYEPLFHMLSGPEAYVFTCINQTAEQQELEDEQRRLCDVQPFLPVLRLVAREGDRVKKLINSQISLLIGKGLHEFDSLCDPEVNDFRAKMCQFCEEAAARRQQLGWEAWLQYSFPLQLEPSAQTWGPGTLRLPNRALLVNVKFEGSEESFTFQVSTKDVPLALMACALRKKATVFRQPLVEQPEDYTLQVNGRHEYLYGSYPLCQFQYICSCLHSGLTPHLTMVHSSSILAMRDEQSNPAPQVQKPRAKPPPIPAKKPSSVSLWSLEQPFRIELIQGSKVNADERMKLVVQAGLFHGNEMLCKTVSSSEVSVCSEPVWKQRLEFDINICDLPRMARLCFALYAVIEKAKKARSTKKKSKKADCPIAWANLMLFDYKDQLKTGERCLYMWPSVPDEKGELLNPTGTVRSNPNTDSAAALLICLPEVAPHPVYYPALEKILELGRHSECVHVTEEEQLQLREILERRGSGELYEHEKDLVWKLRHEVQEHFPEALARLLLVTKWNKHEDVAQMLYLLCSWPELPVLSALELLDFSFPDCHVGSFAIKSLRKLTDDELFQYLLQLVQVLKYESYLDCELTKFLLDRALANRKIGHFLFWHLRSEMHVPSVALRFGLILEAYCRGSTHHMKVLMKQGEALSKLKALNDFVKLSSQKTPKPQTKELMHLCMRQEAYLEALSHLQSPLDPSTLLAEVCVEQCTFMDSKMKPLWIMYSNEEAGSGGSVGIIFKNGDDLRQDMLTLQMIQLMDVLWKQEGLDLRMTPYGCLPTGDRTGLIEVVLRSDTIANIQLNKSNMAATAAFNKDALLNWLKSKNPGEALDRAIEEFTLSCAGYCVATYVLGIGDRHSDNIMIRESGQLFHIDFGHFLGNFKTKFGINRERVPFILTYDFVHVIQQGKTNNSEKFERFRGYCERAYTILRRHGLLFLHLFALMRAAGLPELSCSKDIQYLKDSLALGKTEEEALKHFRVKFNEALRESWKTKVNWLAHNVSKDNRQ
T1 sequence (P27986 whole entry partner): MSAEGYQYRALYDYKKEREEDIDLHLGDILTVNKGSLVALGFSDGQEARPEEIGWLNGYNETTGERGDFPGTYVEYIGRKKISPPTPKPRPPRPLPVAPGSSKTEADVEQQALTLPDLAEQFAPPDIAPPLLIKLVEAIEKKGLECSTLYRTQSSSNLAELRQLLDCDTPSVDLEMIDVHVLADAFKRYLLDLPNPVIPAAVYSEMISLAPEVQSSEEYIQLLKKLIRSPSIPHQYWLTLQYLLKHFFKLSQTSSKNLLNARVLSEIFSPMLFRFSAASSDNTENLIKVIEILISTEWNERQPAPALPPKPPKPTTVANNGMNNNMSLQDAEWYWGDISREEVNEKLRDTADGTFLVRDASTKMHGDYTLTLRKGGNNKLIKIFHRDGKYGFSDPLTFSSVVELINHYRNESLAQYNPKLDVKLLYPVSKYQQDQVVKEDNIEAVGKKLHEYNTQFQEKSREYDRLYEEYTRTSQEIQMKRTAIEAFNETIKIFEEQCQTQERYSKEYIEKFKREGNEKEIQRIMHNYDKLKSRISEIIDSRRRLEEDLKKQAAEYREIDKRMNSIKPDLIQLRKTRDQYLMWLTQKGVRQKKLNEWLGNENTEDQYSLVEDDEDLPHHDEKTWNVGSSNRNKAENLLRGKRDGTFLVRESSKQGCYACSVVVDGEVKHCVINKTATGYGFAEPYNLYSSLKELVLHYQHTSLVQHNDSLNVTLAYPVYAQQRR
T2 sequence (P42336 whole entry): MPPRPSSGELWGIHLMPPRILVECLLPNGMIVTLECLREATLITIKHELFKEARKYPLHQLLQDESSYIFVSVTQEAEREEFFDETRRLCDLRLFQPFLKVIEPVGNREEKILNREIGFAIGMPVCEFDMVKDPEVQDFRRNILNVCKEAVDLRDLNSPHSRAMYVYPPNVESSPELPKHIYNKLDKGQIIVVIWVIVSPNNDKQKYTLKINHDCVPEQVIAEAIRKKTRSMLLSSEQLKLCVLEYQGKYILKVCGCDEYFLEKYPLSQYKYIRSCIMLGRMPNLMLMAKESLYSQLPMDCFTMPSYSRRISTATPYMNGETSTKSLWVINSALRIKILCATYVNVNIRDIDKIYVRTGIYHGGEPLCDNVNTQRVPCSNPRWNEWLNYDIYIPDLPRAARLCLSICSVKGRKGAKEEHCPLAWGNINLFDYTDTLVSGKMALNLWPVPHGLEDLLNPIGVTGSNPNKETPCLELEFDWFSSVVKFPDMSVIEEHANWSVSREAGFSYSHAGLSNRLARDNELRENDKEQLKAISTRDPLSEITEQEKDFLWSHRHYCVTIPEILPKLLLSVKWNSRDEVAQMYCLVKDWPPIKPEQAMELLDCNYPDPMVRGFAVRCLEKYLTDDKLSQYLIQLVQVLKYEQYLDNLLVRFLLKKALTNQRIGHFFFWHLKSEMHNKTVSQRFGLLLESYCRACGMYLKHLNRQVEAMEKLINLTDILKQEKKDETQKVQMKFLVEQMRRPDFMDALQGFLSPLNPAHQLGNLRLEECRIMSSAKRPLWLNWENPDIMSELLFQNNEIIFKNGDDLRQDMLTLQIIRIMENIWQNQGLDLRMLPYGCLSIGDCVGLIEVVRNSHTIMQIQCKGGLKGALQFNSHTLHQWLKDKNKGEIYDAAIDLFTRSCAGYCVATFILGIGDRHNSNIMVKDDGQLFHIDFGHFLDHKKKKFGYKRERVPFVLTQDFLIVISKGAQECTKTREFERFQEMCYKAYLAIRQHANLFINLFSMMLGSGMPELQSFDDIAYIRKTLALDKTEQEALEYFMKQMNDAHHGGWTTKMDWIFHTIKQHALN
T2 sequence (P27986 whole entry partner): as the sequence (P27986 whole entry partner) above

For `C[C@H](Nc1ncnc2ccc(C#N)cc12)c1nc2cccc(-c3cncnc3)c2c(=O)n1-c1ccccc1` [Example 1, (S)-4-((1-(4-oxo-3-phenyl-5-(pyrimidin-5-yl)-3,4-dihydroquinazolin-2-yl)ethyl)amino)quinazoline-6-carbonitrile], the values for the pIC50 against PI3Kδ (p110δ/p85α)(h), against PI3Kα (p110α/p85α)(h) and against PI3Kγ (p120γ)(h) were 7.70, 5.45 and 6.04, respectively.
`Cc1ncc(-c2cccc3nc([C@H](C)Nc4ncnc5ccc(C#N)cc45)n(-c4ccccc4)c(=O)c23)cn1` [Example 3, (S)-4-((1-(5-(2-methylpyrimidin-5-yl)-4-oxo-3-phenyl-3,4-dihydroquinazolin-2-yl)ethyl)amino)quinazoline-6-carbonitrile]: the values for the pIC50 on PI3Kδ (p110δ/p85α)(h), on PI3Kα (p110α/p85α)(h) and against PI3Kγ (p120γ)(h) were 7.66, 5.75 and 6.58, respectively.
The like results for `CC[C@H](Nc1ncnc2ccc(C#N)cc12)c1nc2cccc(-c3cncnc3)c2c(=O)n1-c1ccccc1` [Example 4, (S)-4-((1-(4-oxo-3-phenyl-5-(pyrimidin-5-yl)-3,4-dihydroquinazolin-2-yl)propyl)amino)quinazoline-6-carbonitrile] were, in that order, 7.85, 5.66 and 5.44.
The like results for `CC[C@H](Nc1ncnc2ccc(C#N)cc12)c1nc2cccc(-c3cnc(OC)nc3)c2c(=O)n1-c1ccccc1` [Example 5, (S)-4-((1-(5-(2-methoxypyrimidin-5-yl)-4-oxo-3-phenyl-3,4-dihydroquinazolin-2-yl)propyl)amino)quinazoline-6-carbonitrile] were, in that order, 7.85, 6.00 and 5.67.
The like results for `CCOc1ncc(-c2cccc3nc([C@H](CC)Nc4ncnc5ccc(C#N)cc45)n(-c4ccccc4)c(=O)c23)cn1` [Example 6, (S)-4-((1-(5-(2-ethoxypyrimidin-5-yl)-4-oxo-3-phenyl-3,4-dihydroquinazolin-2-yl)propyl)amino)quinazoline-6-carbonitrile] were, in that order, 7.82, 5.82 and 5.71.
Turning to `CC[C@H](Nc1ncnc2ccc(C#N)cc12)c1nc2cccc(-c3cnc(N(C)C)nc3)c2c(=O)n1-c1ccccc1` [Example 7, (S)-4-((1-(5-(2-(dimethylamino)pyrimidin-5-yl)-4-oxo-3-phenyl-3,4-dihydroquinazolin-2-yl)propyl)amino)quinazoline-6-carbonitrile], the pIC50 (usually the IC50 on a negative log10 scale, so that one unit is a factor of ten) on PI3Kδ (p110δ/p85α)(h) is 7.70; at PI3Kα (p110α/p85α)(h), 6.20; against PI3Kγ (p120γ)(h) it was 6.13.
As to `CC[C@H](Nc1ncnc2ccc(C#N)cc12)c1nc2cccc(-c3cnc(SC)nc3)c2c(=O)n1-c1ccccc1` [Example 8, (S)-4-((1-(5-(2-(methylsulfanyl)pyrimidin-5-yl)-4-oxo-3-phenyl-3,4-dihydroquinazolin-2-yl)propyl)amino)quinazoline-6-carbonitrile], the figures for the pIC50 against PI3Kδ (p110δ/p85α)(h), at PI3Kα (p110α/p85α)(h) and on PI3Kγ (p120γ)(h) were 7.74, 6.10 and 5.76, respectively.
With `CCC[C@H](Nc1ncnc2ccc(C#N)cc12)c1nc2cccc(-c3cnc(C)nc3)c2c(=O)n1-c1ccccc1` [Example 9, (S)-4-((1-(5-(2-methylpyrimidin-5-yl)-4-oxo-3-phenyl-3,4-dihydroquinazolin-2-yl)butyl)amino)quinazoline-6-carbonitrile], the values for the pIC50 at PI3Kδ (p110δ/p85α)(h), against PI3Kα (p110α/p85α)(h) and at PI3Kγ (p120γ)(h) were 7.74, 5.55 and 5.94, respectively.
As to `CC(C)[C@H](Nc1ncnc2ccc(C#N)cc12)c1nc2cccc(-c3cnc(N)nc3)c2c(=O)n1-c1ccccc1` [Example 13, (S)-4-((1-(5-(2-aminopyrimidin-5-yl)-4-oxo-3-phenyl-3,4-dihydroquinazolin-2-yl)-2-methylpropyl)amino)quinazoline-6-carbonitrile], the pIC50 against PI3Kδ (p110δ/p85α)(h) is 7.62; on PI3Kα (p110α/p85α)(h), 5.83; against PI3Kγ (p120γ)(h), 5.54.
In the case of `N#Cc1ccc2ncnc(N[C@H](c3nc4cccc(-c5cncnc5)c4c(=O)n3-c3ccccc3)C3CC3)c2c1` [Example 14, (S)-4-((cyclopropyl(4-oxo-3-phenyl-5-(pyrimidin-5-yl)-3,4-dihydroquinazolin-2-yl)methyl)amino)quinazoline-6-carbonitrile], the results for the pIC50 against PI3Kδ (p110δ/p85α)(h), on PI3Kα (p110α/p85α)(h) and against PI3Kγ (p120γ)(h) were 8.52, 6.08 and 6.27, respectively.
Consider `COc1ncc(-c2cccc3nc([C@@H](Nc4ncnc5ccc(C#N)cc45)C4CC4)n(-c4ccccc4)c(=O)c23)cn1` [Example 15, (S)-4-((cyclopropyl(5-(2-methoxypyrimidin-5-yl)-4-oxo-3-phenyl-3,4-dihydroquinazolin-2-yl)methyl)amino)quinazoline-6-carbonitrile], for which the results for the pIC50 against PI3Kδ (p110δ/p85α)(h), on PI3Kα (p110α/p85α)(h) and against PI3Kγ (p120γ)(h) were 7.77, 6.12 and 6.44, respectively.
For the compound `CCOc1ncc(-c2cccc3nc([C@@H](Nc4ncnc5ccc(C#N)cc45)C4CC4)n(-c4ccccc4)c(=O)c23)cn1` [Example 16, (S)-4-((cyclopropyl(5-(2-ethoxypyrimidin-5-yl)-4-oxo-3-phenyl-3,4-dihydroquinazolin-2-yl)methyl)amino)quinazoline-6-carbonitrile], the results for the pIC50 at PI3Kδ (p110δ/p85α)(h), against PI3Kα (p110α/p85α)(h) and on PI3Kγ (p120γ)(h) were 8.40, 5.89 and 6.36, respectively.
As to `C[C@H](Nc1ncnc2cccc(F)c12)c1nc2cccc(-c3cncnc3)c2c(=O)n1-c1ccccc1` [Example 22, (S)-2-(1-((5-fluoroquinazolin-4-yl)amino)ethyl)-3-phenyl-5-(pyrimidin-5-yl)quinazolin-4(3H)-one], the pIC50 against PI3Kδ (p110δ/p85α)(h) is 7.52; at PI3Kγ (p120γ)(h), 5.23.
`C[C@H](Nc1ncnc2cccc(F)c12)c1nc2cccc(-c3cnc(N)nc3)c2c(=O)n1-c1ccccc1` [Example 23, (S)-5-(2-aminopyrimidin-5-yl)-2-(1-((5-fluoroquinazolin-4-yl)amino)ethyl)-3-phenylquinazolin-4(3H)-one]: the pIC50 is 7.72 at PI3Kδ (p110δ/p85α)(h), 5.56 against PI3Kα (p110α/p85α)(h) and 5.86 against PI3Kγ (p120γ)(h).
Consider `CC[C@H](Nc1ncnc2cccc(F)c12)c1nc2cccc(-c3cncnc3)c2c(=O)n1-c1ccccc1` [Example 24, (S)-2-(1-((5-fluoroquinazolin-4-yl)amino)propyl)-3-phenyl-5-(pyrimidin-5-yl)quinazolin-4(3H)-one], for which the pIC50 at PI3Kδ (p110δ/p85α)(h) was 7.77; against PI3Kα (p110α/p85α)(h) it was 5.09; on PI3Kγ (p120γ)(h) it was 5.37.
Turning to `CC(C)[C@H](Nc1ncnc2cccc(F)c12)c1nc2cccc(-c3cncnc3)c2c(=O)n1-c1ccccc1` [Example 28, (S)-2-(1-((5-fluoroquinazolin-4-yl)amino)-2-methylpropyl)-3-phenyl-5-(pyrimidin-5-yl)quinazolin-4(3H)-one], at PI3Kδ (p110δ/p85α)(h), the pIC50 is 7.72.
For the compound `CC(C)[C@H](Nc1ncnc2cccc(F)c12)c1cc2cccc(-c3cncnc3)c2c(=O)n1-c1ccccc1` [Example 45, (S)-3-(1-((5-fluoroquinazolin-4-yl)amino)-2-methylpropyl)-2-phenyl-8-(pyrimidin-5-yl)isoquinolin-1(2H)-one], the pIC50 against PI3Kδ (p110δ/p85α)(h) was 7.77; at PI3Kγ (p120γ)(h), < 6.00.
The like results for `Cc1ncc(-c2cccc3cc([C@@H](Nc4ncnc5cccc(F)c45)C(C)C)n(-c4ccccc4)c(=O)c23)cn1` [Example 47, (S)-3-(1-((5-fluoroquinazolin-4-yl)amino)-2-methylpropyl)-8-(2-methylpyrimidin-5-yl)-2-phenylisoquinolin-1(2H)-one] were, in that order, 7.64 and < 6.00.
